Tests used:
[1] = system: Schoenoplectiella juncoides; assay: Herbicidal activity against Schoenoplectiella juncoides under greenhouse condition compound treated at 0.5 leaf stage measured after 14 to 20 days; assay type: functional
Echinochloa oryzicola [2] = assay: Herbicidal activity against Echinochloa oryzicola under greenhouse condition compound treated at emergence stage measured after 14 to 20 days; assay type: functional
Oryza sativa [3] = assay: Phytotoxicity against Oryza sativa cv. Kinuhikari (rice) planted at 3 cm depth measured after 26 days; assay type: organism-based; settings: in vivo, 624 h
[4] = system: Schoenoplectiella juncoides; assay: Herbicidal activity against Schoenoplectiella juncoides compound treated at 0.5-leaf stage measured after 26 days by outdoor concrete pot test; assay type: functional
Echinochloa oryzicola [5] = assay: Herbicidal activity against Echinochloa oryzicola compound treated at emergence stage measured after 26 days by outdoor concrete pot test; assay type: functional
Elatine triandra = assay: Herbicidal activity against Elatine triandra compound treated at 1 to 2.2-leaf stage measured after 26 days by outdoor concrete pot test; assay type: functional
Rotala indica = assay: Herbicidal activity against Rotala indica compound treated at 1 to 2.2-leaf stage measured after 26 days by outdoor concrete pot test; assay type: functional
Lindernia procumbens = assay: Herbicidal activity against Lindernia procumbens compound treated at 1 to 2.2-leaf stage measured after 26 days by outdoor concrete pot test; assay type: functional
Pontederia vaginalis = assay: Herbicidal activity against Monochoria vaginalis compound treated at 1.5-leaf stage measured after 26 days by outdoor concrete pot test; assay type: functional
Echinochloa oryzicola [6] = assay: Herbicidal activity against Echinochloa oryzicola compound treated at 2.5-leaf stage measured after 26 days by outdoor concrete pot test; assay type: functional
Oryza sativa [7] = assay: Phytotoxicity against Oryza sativa cv. Kinuhikari (rice) planted at 3 cm depth measured after 20 to 25 days; assay type: organism-based; settings: in vivo
Echinochloa oryzicola [8] = assay: Herbicidal activity against Echinochloa oryzicola under greenhouse condition compound treated at 2.5 leaf stage measured after 14 to 20 days; assay type: functional

Compound: O=C(OC(c1cnccc1C(F)(F)F)c1cccc2ccccc12)n1ccnc1 (configuration not stated)
- ED80 [1]: >1000 gAi/ha
- ED80 (Echinochloa oryzicola [2]): >500 gAi/ha

Compound: CN(C)C(=O)OC(c1cnccc1C(F)(F)F)c1cccc2ccccc12 (single isomer, unassigned; (+))
- ED20 (Oryza sativa [3]): 1000 gAi/ha
- ED80 [4]: >500 gAi/ha
- ED80 (Echinochloa oryzicola [5]): 125 gAi/ha

Compound: CN(C)C(=O)OC(c1cnccc1C(F)(F)F)c1cccc2ccccc12 (single isomer, unassigned; (-))
- ED80 (Elatine triandra): <63 gAi/ha
- ED20 (Oryza sativa [3]): 500 gAi/ha
- ED80 (Rotala indica): <63 gAi/ha
- ED80 (Lindernia procumbens): <63 gAi/ha
- ED80 (Pontederia vaginalis): <100 gAi/ha
- ED80 (Echinochloa oryzicola [6]): <63 gAi/ha
- ED80 [4]: 125 gAi/ha
- ED80 (Echinochloa oryzicola [5]): <31 gAi/ha

Compound: CCN(CC)C(=O)OC(c1cnccc1C(F)(F)F)c1cccc2ccccc12 (configuration not stated)
- ED20 (Oryza sativa [7]): > 2000 gAi/ha
- ED80 [1]: 1000 gAi/ha
- ED80 (Echinochloa oryzicola [8]): 250 gAi/ha
- ED80 (Echinochloa oryzicola [2]): 31 gAi/ha

Compound: CN(C)C(=O)OC(c1cnccc1C(F)(F)F)c1cccc2c1OCO2 (configuration not stated)
- ED20 (Oryza sativa [7]): 500 gAi/ha
- ED80 [1]: 250 gAi/ha
- ED80 (Echinochloa oryzicola [2]): 63 gAi/ha

Compound: CN(C)C(=O)OC(c1cnccc1C(F)(F)F)c1c(Cl)ccc2c1OCO2 (configuration not stated)
- ED20 (Oryza sativa [7]): > 2000 gAi/ha
- ED80 [1]: 500 gAi/ha
- ED80 (Echinochloa oryzicola [8]): 500 gAi/ha
- ED80 (Echinochloa oryzicola [2]): 63 gAi/ha

Compound: CN(C)C(=O)OC(c1cnccc1C#N)c1cccc2ccccc12 (configuration not stated)
- ED20 (Oryza sativa [7]): > 1000 gAi/ha
- ED80 [1]: 250 gAi/ha
- ED80 (Echinochloa oryzicola [8]): 250 gAi/ha
- ED80 (Echinochloa oryzicola [2]): 63 gAi/ha

Compound: CN(C)C(=O)OC(c1cnccc1Cl)c1cccc2ccccc12 (configuration not stated)
- ED20 (Oryza sativa [7]): 1000 gAi/ha
- ED80 [1]: 63 gAi/ha
- ED80 (Echinochloa oryzicola [8]): >500 gAi/ha
- ED80 (Echinochloa oryzicola [2]): 63 gAi/ha
